Measurements published in patent EP1935887A1, “Heterocyclic substituted carbonyl derivatives and their use as dopamine D3 receptor ligands” (Aventis Pharmaceuticals Inc., priority 2001, dated 2002).

Biological target: T1, Cloned Human Dopamine D3 Receptors (Homo sapiens, UniProt P35462)
T1 construct: expressed in transfected cells; membrane homogenate
Assay: [N-Methyl-3H]Spiroperidol binding to cloned human dopamine D3 receptors
Conditions: Table 2; unit inferred; read-out: d3Ki
Description: [N-Methyl-^3H]Spiroperidol Binding to Cloned Human Dopamine D3 Receptors
This assay measures the in vitro activity of compounds on cloned human dopamine (D3) receptors and predicts the direct dopamine-blocking properties of putative neuropsychiatric agents at human dopamine D3 receptors.
The D3 gene was isolated from a human striatal cDNA library (Stratagene). The gene was sequenced and sub-cloned into the expression vector RC/RSV (Invitrogen). CHO (Chinese Hamster Ovary) cells were stably transfected with 10 µg of the D3/RSV plasmid using the DOTAP method from Boehringer Mannheim and 72 clones that were G418 resistant were isolated. Using mRNA and binding displacement data a single high expressing clone was identified. This clone was then grown in large batches for the purpose of developing a 96 well format assay.
• 1. One plate (10 cm) with approximately 2-3 million D3 cells per plate is incubated with 1 ml of Trypsin-EDTA at room temperature for -2 min or until cells have lifted off plates. Four ml of Ham's F12 + 10% Fetal Bovine Serum + 1% Penicillin/Streptomycin + G418 (400 µg/ml) medium are added to resuspend cells and 1 ml of this is added to each large plate (15 cm) containing 19 ml of the same medium as mentioned above. • 2. The 5 large plates are incubated at 37°C + 5% CO2 for - 3 days or until the cells are confluent. • 3. After these plates are confluent, they are split into 10 large plates. Medium is aspirated off, 2 ml of Trypsin-EDTA are added to each plate and plates are incubated at RT for 2 min or until cells have lifted off the plate. Eight ml of the F12 medium (same medium as #1 above) are added to each plate (10 ml total) to resuspend the cells and 5 ml are transferred to the 2 new plates containing 15 ml of the F12 media. • 4. The 10 large plates are incubated at 37°C + 5% CO2 for ∼ 2 days or until the cells are confluent. • 5. The 10 large plates are split into 60 large plates (using Trypsin-EDTA as #3 except 4 ml of F12 medium are added to resuspend cells and 1 ml is aliquoted to 6 new plates containing 19 ml of F12 medium each). • 6. Plates are incubated at 37°C + 5% CO2 for - 3 days or until cell are confluent. • 7. The 60 large plates are then split into 60 roller bottles (100-150 million cells/bottle). Medium is aspirated off , 2 ml of Trypsin-EDTA are added to each plate and incubated at RT for -2 minutes or until cells have lifted off plates. Eight ml of F12 medium are added to each plate to resuspend cells and the entire 10 ml are added to 1 roller bottle containing 90 ml of the F12 medium. • 8. The 60 roller bottles are immediately placed on their sides and transferred to the roller bottle incubator. They are incubated at 37°C + 5% CO2 for ~ 3-5 days. Cells are spun at 30-40% motor speed in the Forma incubator. • 9. Medium is poured off and cells are washed 2X in PBS. • 10. Cells are then scraped off in 20 ml of PBS and the bottles are rinsed again with 5 ml of PBS to remove any remaining cells. Cells are stored on ice before membrane prepration. • 11. The yield for 60 D3 roller bottles has varied from - 260-500 mg. Note: All tissue culture reagents are from Gibco-BRL.
The cells are harvested into 250 ml centrifuge tubes with 100 volumes of cold phosphate buffered saline (PBS) and spun down (1200xG for 10 min at 4°C). The medium is removed and 100 ml PBS are added to each centrifuge tube, cells are resuspened and spun down again. The PBS is removed and the final pellet is homogenized in an appropriate volume of 10% DMSO with a polytron on ice at a medium setting.
A 200 µl sample membrane homogenate is added to 200 µl of 1% SDS, vortexed and allowed to stand for 5 min. Aliquots (25, 50 and 100 µl) of this mixture are assayed in duplicate following the standard Bio-Rad DC protein assay protocol (kit catalog number 500-0112) and using reagent S. Absorbance readings are made at 750 nm (note: the most accurate protein OD readings are between 0.1-0.5 units). […]

T1 sequence (P35462 whole entry): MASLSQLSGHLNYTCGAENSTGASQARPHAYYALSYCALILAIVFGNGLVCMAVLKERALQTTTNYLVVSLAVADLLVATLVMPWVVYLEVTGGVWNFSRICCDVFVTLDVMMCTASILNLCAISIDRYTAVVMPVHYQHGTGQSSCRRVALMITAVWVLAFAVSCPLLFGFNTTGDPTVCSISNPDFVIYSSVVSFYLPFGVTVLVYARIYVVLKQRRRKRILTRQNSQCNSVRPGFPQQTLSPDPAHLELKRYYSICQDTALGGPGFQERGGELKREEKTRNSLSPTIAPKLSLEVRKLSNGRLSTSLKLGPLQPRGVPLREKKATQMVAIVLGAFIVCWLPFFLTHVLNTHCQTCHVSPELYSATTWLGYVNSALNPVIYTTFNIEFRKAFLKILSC

| Structure (SMILES) | Ki [nM] |
| --- | --- |
| COc1ccc(N2CCN(C[C@@H]3C[C@H]3C(=O)N[C@H]3CC[C@H](C)CC3)CC2)c(OC)c1 [compound 817094] | 8.89 |
| CC[C@H]1CC[C@H](NC(=O)[C@@H]2C[C@H]2CN2CCN(c3ccc(OC)cc3OC)CC2)CC1 [compound 817096] | 9.09 |
| CCC1CCC(NC(=O)C2CC2CN2CCCN(c3cc(C(F)(F)F)nc(C(C)(C)C)n3)CC2)CC1 (centres unmarked) [compound 817260] | 12.5 |
| CC1CCC(NC(=O)C2CC2CN2CCCN(c3cc(C(F)(F)F)nc(C(C)(C)C)n3)CC2)CC1 (centres unmarked) [compound 817261] | 9.23 |
| CC1CCC(NC(=O)C2CC2CN2CCCN(c3cnccn3)CC2)CC1 (centres unmarked) [compound 817567] | 80.6 |
| CC[C@H]1CC[C@H](NC(=O)[C@@H]2C[C@H]2CN2CCCN(c3cnccn3)CC2)CC1 [compound 817568] | 36.3 |
| CC1CCC(NC(=O)C2CC2CN2CCCN(c3ccccn3)CC2)CC1 (centres unmarked) [compound 818498] | 25.6 |
| CC[C@H]1CC[C@H](NC(=O)[C@@H]2C[C@H]2CN2CCN(c3csc4cc(C(F)(F)F)ccc34)CC2)CC1 [compound 818499] | 22.1 |
| CCC1CCC(NC(=O)C2CC2CN2CCN(c3noc4ccsc34)CC2)CC1 (centres unmarked) [compound 818574] | 9.6 |
| CN(C(=O)CCCCN1CCN(c2csc3cc(F)ccc23)CC1)c1ccccc1 [compound 822129] | 38 |
| CCN(C(=O)CCCCN1CCN(c2csc3cc(F)ccc23)CC1)c1ccc2c(c1)OCO2 [compound 822130] | 51 |
| COc1ccc(N(C)C(=O)CCCCN2CCN(c3csc4cc(F)ccc34)CC2)cc1 [compound 822131] | 61 |
| CCN(C(=O)CCCCN1CCN(c2csc3cc(F)ccc23)CC1)c1c(C)cccc1O [compound 822132] | 18 |
| CN(C(=O)CCCCN1CCN(c2csc3cc(F)ccc23)CC1)c1ccc(Cl)cc1 [compound 822133] | 17 |
| O=C(CCCCN1CCN(c2csc3cc(F)ccc23)CC1)Nc1cccc2ccccc12 [compound 822134] | 82 |
| CC(C)(C)c1ccc(NC(=O)CCCCN2CCN(c3csc4cc(F)ccc34)CC2)cc1 [compound 822136] | 207 |
| O=C(CCCCN1CCN(c2csc3cc(F)ccc23)CC1)Nc1cccc(Oc2ccccc2)c1 [compound 822137] | 36 |
| CN(C(=O)CCCCN1CCN(c2csc3cc(F)ccc23)CC1)c1cccc2ccccc12 [compound 822138] | 81 |

Other lines, results leading:

| Ki [nM] | Structure (SMILES) |
| --- | --- |
| 0.804 | C[C@H]1CC[C@H](NC(=O)[C@@H]2C[C@H]2CN2CCN(c3ccccc3C#N)CC2)CC1 [compound 817040] |
| 0.776 | CCC1CCC(NC(=O)C2CC2CN2CCN(c3cccc(Cl)c3Cl)CC2)CC1 (centres unmarked) [compound 817041] |
| 0.615 | CCC1CCC(NC(=O)C2CC2CN2CCN(c3cc(Cl)ccc3OC)CC2)CC1 (centres unmarked) [compound 817042] |
| 7.2 | CCC1CCC(NC(=O)C2CC2CN2CCN(c3ccc(C(F)(F)F)cc3)CC2)CC1 (centres unmarked) [compound 817043] |
| 1.1 | CC[C@H]1CC[C@H](NC(=O)[C@@H]2C[C@H]2CN2CCN(c3ccccc3C#N)CC2)CC1 [compound 817044] |
| 5.36 | Cc1ccc(N2CCN(C[C@@H]3C[C@H]3C(=O)N[C@H]3CC[C@H](C)CC3)CC2)cc1C [compound 817045] |
| 1.92 | CCC1CCC(NC(=O)C2CC2CN2CCN(c3ccc(C)c(C)c3)CC2)CC1 (centres unmarked) [compound 817046] |
| 2.86 | O=C(N[C@H]1CC[C@H](C(=O)N2CCCC2)CC1)[C@@H]1C[C@H]1CN1CCN(c2csc3cc(C(F)(F)F)ccc23)CC1 [compound 817047] |
| 2.85 | CCN(CC)C(=O)[C@H]1CC[C@H](NC(=O)[C@@H]2C[C@H]2CN2CCN(c3csc4cc(C(F)(F)F)ccc34)CC2)CC1 [compound 817048] |
| 7.02 | COCCNC(=O)C1CCC(NC(=O)C2CC2CN2CCN(c3csc4cc(C(F)(F)F)ccc34)CC2)CC1 (centres unmarked) [compound 817049] |
| 2.15 | C[C@]1(O)CC[C@H](NC(=O)[C@@H]2C[C@H]2CN2CCN(c3csc4cc(C(F)(F)F)ccc34)CC2)CC1 [compound 817050] |
| 3.47 | C[C@]1(O)CC[C@@H](NC(=O)[C@@H]2C[C@H]2CN2CCN(c3csc4cc(C(F)(F)F)ccc34)CC2)CC1 [compound 817051] |
| 2.17 | CC[C@H]1CC[C@H](NC(=O)[C@@H]2C[C@H]2CN2CCN(c3ccc(Cl)c(Cl)c3)CC2)CC1 [compound 817090] |
| 3.98 | CC[C@H]1CC[C@H](NC(=O)[C@@H]2C[C@H]2CN2CCN(c3ccc(C)cc3C)CC2)CC1 [compound 817091] |
| 5.97 | CC[C@H]1CC[C@H](NC(=O)[C@@H]2C[C@H]2CN2CCN(c3ncc(C(F)(F)F)cc3Cl)CC2)CC1 [compound 817093] |
| 0.671 | C[C@H]1CC[C@H](NC(=O)[C@@H]2C[C@H]2CN2CCN(c3cc(Cl)cc(Cl)c3)CC2)CC1 [compound 817095] |
| 0.636 | CCC1CCC(NC(=O)C2CC2CN2CCN(c3cc(Cl)cc(Cl)c3)CC2)CC1 (centres unmarked) [compound 817097] |
| 1.06 | C[C@H]1CC[C@H](NC(=O)[C@@H]2C[C@H]2CN2CCN(c3cccc4[nH]ccc34)CC2)CC1 [compound 817098] |
| 1.1 | C[C@H]1CC[C@H](NC(=O)[C@@H]2C[C@H]2CN2CCN(c3cccc4ccccc34)CC2)CC1 [compound 817099] |
| 0.75 | CCC1CCC(NC(=O)C2CC2CN2CCN(c3cccc4[nH]ccc34)CC2)CC1 (centres unmarked) [compound 817100] |
| 0.547 | CC[C@H]1CC[C@H](NC(=O)[C@@H]2C[C@H]2CN2CCN(c3cccc4ccccc34)CC2)CC1 [compound 817101] |
| 7.75 | CC[C@H]1CC[C@H](NC(=O)[C@@H]2C[C@H]2CN2CCN(c3cc(C)ccc3C)CC2)CC1 [compound 817102] |
| 1.72 | CCCc1cc(N2CCCN(C[C@@H]3C[C@H]3C(=O)N[C@H]3CC[C@H](CC)CC3)CC2)nc(C(C)(C)C)n1 [compound 817272] |
| 3.05 | CCCc1cc(N2CCCN(C[C@@H]3C[C@H]3C(=O)N[C@H]3CC[C@H](C)CC3)CC2)nc(C(C)(C)C)n1 [compound 817273] |
| 1.73 | C[C@H]1CC[C@H](NC(=O)[C@@H]2C[C@H]2CN2CCN(c3ncccc3Cl)CC2)CC1 [compound 817565] |
| 2.46 | CC[C@H]1CC[C@H](NC(=O)[C@@H]2C[C@H]2CN2CCN(c3ncccc3Cl)CC2)CC1 [compound 817566] |
| 5.52 | CCC1(O)CCC(NC(=O)[C@@H]2C[C@H]2CN2CCN(c3csc4cc(C(F)(F)F)ccc34)CC2)CC1 (some centres unmarked) [compound 818497] |
| 3.6 | O=C(CCCCN1CCN(c2csc3cc(F)ccc23)CC1)Nc1ccccc1F [compound 822135] |

Same assay, conditions: d3Ki, Table 2; unit inferred

| Structure (SMILES) | Ki [nM] |
| --- | --- |
| C[C@H]1CC[C@H](NC(=O)[C@H]2C[C@@H]2CN2CCN(c3noc4ccsc34)CC2)CC1 [compound 817893] | 245 |
| CC1CCC(NC(=O)C2CC2CN2CCN(c3noc4ccsc34)CC2)CC1 (centres unmarked) [compound 818427] | 6.07 |

Same assay, conditions: read-out: d3Ki

| Structure (SMILES) | Ki [nM] |
| --- | --- |
| Cc1ccccc1N1CCN(CC2CC2C(=O)NC2CCC(C)CC2)CC1 (centres unmarked) [compound 817478] | 1.46 |
| CC[C@H]1CC[C@H](NC(=O)[C@@H]2C[C@H]2CN2CCN(c3ncc(C(F)(F)F)cc3Cl)CC2)CC1 [compound 817480] | 3.07 |
| CC[C@H]1CC[C@H](NC(=O)[C@@H]2C[C@H]2CN2CCN(c3cc(C)ccc3C)CC2)CC1 [compound 817570] | 6.24 |
| CC[C@H]1CC[C@H](NC(=O)[C@@H]2C[C@H]2CN2CCN(c3ccc(C)cc3C)CC2)CC1 [compound 817571] | 2.85 |
| CCC1CCC(NC(=O)C2CC2CN2CCN(c3ccccc3C)CC2)CC1 (centres unmarked) [compound 818675] | 0.711 |
